1 molecule from patent publication US20110020843A1, “LABEL-FREE METHODS RELATED TO PHOSPHODIESTERASES” (priority 2009, published 2011) can be followed below.

For one experiment, the system named is quiescent A431 cells. Briefly: DMR modulation index against panel of markers in quiescent A431 cells. Type of experiment: cell-based, human. From the text: (§1) 191. To characterize the polypharmacology including PDE4 inhibitory activity of compounds, we used the known EGFR inhibitor tyrphostin 51 as an example. Quiescent A431 and proliferating A549 cells were separately exposed to tyrphostin 51 at 10 micromolar for about 1 hr to generate its primary profiles, followed by stimulation with each marker at a fixed concentration for another 1 hr or so to generate secondary profiles of the tyrphostin 51 against the panels of markers in both types of cells. Next, one or more specific DMR parameters were chosen as a readout for plotting the DMR index of the molecule.
192. The first panel of markers was contacted with quiescent A431 cells at concentrations close to each of the marker's EC80 or EC100, and DMR measurements were obtained with and EPIC® system. This panel of markers was selected from a library of markers identified in A431 cells using Epic® cellular assays. This panel included epidermal growth factor (EGF), epinephrine, nicotinic acid, and histamine. Each of these markers leads to a wide array of cell signaling. Using Epic® cellular assays in conjunction with chemical biology and cell biology approach similar to the EGFR DMR mentioned above, we have determined the pathway(s) and network interaction(s) that is accounted for each marker-induced DMR signal in A431 cells. The main observations are summarized below. Epidermal growth factor is a natural agonist for endogenous EGF receptor in A431 whose activation leads to a divergent array of cell signaling, including PLC-PI3K pathway, MAPK pathway, STAT pathway, and PKC pathway. Epinephrine is a natural agonist for endogenous beat2-adrenergic receptor in A431 cells, whose activation leads to cAMP-PKA pathway. Nicotinic acid is a natural agonist for endogenous GPR109A receptor in A431, whose activation leads to Gi-mediated signaling and MAPK pathway. Histamine is a natural agonist for endogenous histamine type 1 receptor (H1R) in A431, whose activation leads to Gq-mediated signaling and PKC pathway. […] Each DMR signal represents an averaged response of 4 replicates.
(§2) 194. For the pinacidil DMR response in A549, the amplitude of the N-DMR (i.e., the amplitude 30 min after stimulation) was chosen. For the poly(I:C) DMR response in A549, the amplitude of the late DMR (i.e., the amplitude 50 min after stimulation) was chosen. For the PMA response in A549, the late DMR amplitude (i.e., the amplitude 50 min after stimulation) was chosen. For the SLIGKV-amide DMR response in A549, the P-DMR amplitude (i.e., the amplitude 20 min after stimulation) was chosen. For the forskolin response in A549 cells, the P-DMR amplitude (i.e., the amplitude 50 min after stimulation) was chosen. For the histamine response in A549, both the early DMR amplitude (i.e., amplitude 10 min after stimulation) and the late response (i.e., the amplitude 30 min after stimulation) were chosen. For the epinephrine response in A431, the P-DMR amplitude (i.e., the amplitude 50 min after stimulation) was chosen. For the nicotinic acid DMR in A431, the P-DMR amplitude (i.e., the amplitude 3 min after stimulation) was chosen. For the EGF DMR in A431, both the P-DMR (i.e., the amplitude 4 min after stimulation) and N-DMR amplitudes (i.e., the decaying amplitude between 4 min and 40 min after simulation) were chosen. For the histamine response in A431, the P-DMR amplitude (i.e., the amplitude 3 min after stimulation) was chosen. The percentage of modulation of the marker against each marker was calculated by normalizing the secondary profile of the molecule against the marker in the cell to the primary profile of the same marker acting on the same cell.

A further experiment deals with A549 cells. Briefly: DMR modulation index against panel of markers in A549 cells. The format is cell-based, human.
Text: as §1
193. The second panel of markers was contacted with A549 cells at concentrations close to each of the marker's EC80 or EC100, and DMR measurements were obtained with and EPIC® system. This panel included poly(I:C), SLIGKV-amide, pinacidil, PMA, histamine, and forskolin. Each of these markers also leads to a wide array of cell signaling. Using Epic® cellular assays in conjunction with chemical biology and cell biology approach similar to the EGFR DMR mentioned above, we have determined the pathway(s) and network interaction(s) that is accounted for each marker-induced DMR signal in A549 cells. The main observations are summarized below. Poly(I:C) is an agonist for endogenous Toll-like receptor(s) in A549, whose activation leads to IKK pathway and AKT pathway. SLIGKV-amide is an agonist for endogenous protease activated receptor subtype 2 (PAR2) in A549, whose activation leads to Gq-, Gi- and G12/13-mediated signaling. Pinacidil is an opener for endogenous ATP-sensitive potassium (KATP) ion channel in A549, whose activation leads to Rho- and JAK-mediated signaling. PMA is an activator for protein kinase C(PKC), whose activation leads to PKC pathway and degranulation. Histamine is a natural agonist for endogenous histamine receptors (dominantly H1R, and possibly H3R), whose activation leads to dual signaling, possibly through Gq and Gi mediated signaling in A549. Forskolin is an activator for adenylyl cyclases, whose activation leads to cAMP-PKA pathway in A549. […] Each DMR signal represents an averaged response of 4 replicates.
as §2

[1] abbreviates: quiescent A431, 10 micromolar pretreatment ~1 hr.
Where [2] appears, read: 10 micromolar pretreatment ~1 hr.

As to `N#CC(C#N)=C(N)/C(C#N)=C/c1cc(O)c(O)c(O)c1` [tyrphostin 51], in the experiment on quiescent A431 cells (A431, FIG. 12C), the “effect of pretreatment on EGF induced DMR signal” value is “attenuation”, the “effect of pretreatment on epinephrine DMR signal” value was “partially attenuated” and the “effect of pretreatment on histamine DMR signal” value is on record as “partially attenuated”. Moreover, in the experiment on quiescent A431 cells (setting [1]), the “modulation of EGF N-DMR (decaying amplitude 4 to 40 min)” value is recorded as −5%, the “modulation of EGF P-DMR (amplitude 4 min)” value is reported as −36%, the “modulation of epinephrine DMR (P-DMR amplitude 50 min)” value was −68% and the “modulation of histamine DMR (P-DMR amplitude 3 min)” value is listed as −16%. Moreover, the “modulation of nicotinic acid DMR (P-DMR amplitude 3 min)” value with quiescent A431 cells (setting [1]) is “+4%”. Besides, in the experiment on A549 cells (setting [2]), the “modulation of PMA DMR (late DMR amplitude 50 min)” value is reported as −6%, the “modulation of SLIGKV-amide DMR (P-DMR amplitude 20 min)” value was found to be 0%, the “modulation of forskolin DMR (P-DMR amplitude 50 min)” value is −23% and the “modulation of histamine early response (amplitude 10 min)” value was “+6%”. In the experiment on A549 cells (setting [2]), the “modulation of histamine late response (amplitude 30 min)” value was 0% and the “modulation of poly(I:C) DMR (late DMR amplitude 50 min)” value is listed as “+5%”. In addition, the “effect of pretreatment on forskolin DMR signal” value with A549 cells (FIG. 12C) is “partially attenuated”. Also, the “modulation of pinacidil DMR (N-DMR amplitude 30 min)” value in the experiment on A549 cells (tyrphostin 51 at 10 micromolar pretreatment ~1 hr) came out at 0%.
